# Measured values taken from US20050019746A1, “Apoptosis-related kinase/GPCRs” (EiRx Therapeutics Limited, priority 2003, published 2005).
# Tests used:
# [1] = test system: human primary neutrophils; experiment: Neutrophil apoptosis by sub G1 analysis (DNA fragmentation); type: cell-based; conditions: inhibitor 20 μM with GM-CSF 50 units/ml, 18 h, relative to GM-CSF alone
# Method: Neutrophils are isolated from the blood as described in WO 02/04657 and resuspended at a concentration of 2×10^6/ml. Five hundred microlitres are pipetted into wells of a 24 well plate and incubated in the presence or absence of survival factors.
# After this incubation, the neutrophils are carefully resuspended by gentle agitation and the total contents of the well are placed into an eppendorf and centrifuged@2800 rpm for 2 min@RT in a minifuge. The cell pellet is carefully resuspended in 300 μl of ice cold hypotonic fluorochrome solution (50 μg/ml Propidium Iodide, 0.1% Sodium Citrate and 0.1% Triton X-100) and placed in a fridge for 24 h@4° C.
# Prepared samples are analysed with a FacsCalibre flow cytometer (Becton Dickinson) using double discrimination to ensure single cell suspension with Log Forward and Side Scatter Parameter acquisition.
# Neutrophils are seeded at 2×10^6/ml in a 24 well plate in full culture medium (1 ml/well). A PI3K inhibitor (Ly294002) is added to the neutrophils to a final concentration of 20 μM prior to the addition of GM-CSF (50 units/ml). Control wells received either no GM-CSF or F GM-CSF (50 units/ml) in the absence of inhibitor. Neutrophils are cultured for 18 h at 37° C. prior to harvest and prepared for sub G1 analysis, as previously described.
# Neutrophils are seeded at 2×10^6/ml in a 24 well plate in full culture medium (1 ml/well). An AKT inhibitor ([1L-6-Hydroxymethyl-chiro-inositol 2-O-methyl-3-O-octadecylcarbonate] (Calbiochem)) is added to the neutrophils to a final concentration of 20 μM and incubated for 2 h prior to the addition of GM-CSF (50 units/ml). Control wells receive either no GM-CSF or GM-CSF (50 units/ml) in the absence of inhibitor. Neutrophils are cultured for 18 h at 37° C. prior to harvest and prepared for sub G1 analysis, as previously described.
# [2] = test system: target gene mRNA in PC3 cells; experiment: Validation of siRNA efficacy by QPCR in PC3 cells; type: cell-based, human; conditions: PC3, siRNA 50 nM, RNAiFect, 24 hours post transfection, relative to non-silencing control, normalised to GAPDH
# Method: To evaluate the ability of each siRNA oligonucleotides to knock down its intended target, each siRNA was validated in a cell line known to express the target, in this example the genes were tested PC3 cells, which were shown by expression profiling to express all target genes. The efficacy of knockdown was measured using QPCR. Cells are plated at a density of 2×10^4 cells in each well of a 24 well plate and incubated at 37° C. overnight. The siRNA is transfected into cells using RNAiFect reagent (Qiagen) with siRNA at a concentration of 50 nM according to manufacturer's instructions. Additional wells of cells are transfected with 50 nM of a non-silencing control (Qiagen). […] Transfected cells are harvested at 24 hours post transfection, and RNA extracted using RNeasy Miniprep columns with an on-column DNase digestion step. The RNA is eluted in 30 μl of RNase-free H2O. cDNA is synthesised from 12 μl of this RNA using an anchored oligo(dT) primer (Sigma) and Transcriptor reverse transcriptase (Roche) at 55° C. in a total volume of 20 μl following the manufacturer's instructions. The resulting cDNA is diluted to a total of 200 μl with H2O and 10 μl used in each QPCR reaction. The levels of transcript are compared by QPCR, relative to the non-silencing control. QPCR is performed using primers, conditions and methodology identical to those used for expression profiling, see Table 8. All reactions were performed in duplicate and the average Ct values calculated. For each sample, the Ct of each target gene in normalised to GAPDH. Relative expression between cells transfected with target or non-silencing siRNA, normalised to GAPDH expression, is determined by the comparative Ct method.
# [3] = test system: PC3 cells; experiment: 10-14 day Clonagenicity Assay (MTT), PC3; type: cell-based, human; conditions: for percentage survival relative to the missense, n = 1: independent experiment n = 1, dilution point of maximum toxicity
# Description: (§1) The Clonagenicity Assay represents a Cell Viability Screen that allows assessment of a cytotoxic insult at a variety of seed densities of cancer cell lines over an extended period of logarithmic growth, such that the definitive effect of the test substance can be accurately quantified. In this instance, the ‘cytotoxic insult’ to be tested involves the transfection of siRNA Oligomers to knockdown the expression of novel target Kinases and GPCRs as outlined previously. Cell number is quantified 10-14 days post siRNA transfection by MTT conversion as described in detail in Example 6.
# (§2) The Clonagenicity Assay is optimised for each cell line examined with respect to seed number. The seed number varies for each cell line and accounts for the differences in cell size, growth rate and sensitivity to transfection-induced toxicity for each cell line pursued. Cells lines given as models for this example include HCT15, MCF7, A549, SKOV3, DU145, U251, PC3, A498 and HeLa. The siRNA oligo to Survivin serves as a positive control for toxicity in this assay and the missense control oligomer acts as a negative control as described in detail in Examples 5 and 6. The c-Raf, BCL2 and PI3K siRNA oligomers serve as additional controls as previously mentioned. The Clonagenicity assay is performed as outlined below.
# (§3) Cells are seeded into a 96-well plate as described below and allowed to adhere overnight at 37° C. in a humidified atmosphere containing 5% CO2 in air. Wells are seeded with an appropriate cell number (cell line dependent) in Column 1 of the 96 well plates and this cell suspension is diluted 1 in 2 across the 96 well plates from Column 1 through to 6 (represented on the x-axis in results). Cells are next transfected with siRNA Oligomers, at a concentration of 2 μg/ml, against the genes of interest. Transfections continue for 4 hrs after which the transfection solution is removed and cells are refed with fresh medium and allow to incubate overnight. An additional media change@24 hrs post transfection is made to minimise toxicity of the transfection reagent. Cells are subsequently incubated for a 10-14 Day period post transfection at a 37° C. incubation as described above. Medium is renewed weekly following which MTT quantification is performed as described in Example 5.
# (§4) To be considered cytotoxic, the siRNA Oligo against the gene target must induce a decreased viability in a cell line across at least 2 seed densities in the clonagenicity assay, such that a significant difference between the target gene and MS is observed i.e. no crossing of the Standard Error bars is detected. The average percentage viability, relative to missense, is recorded for the dilution point at which Maximum Toxicity is induced is recorded in Table 13.
# (§5) Table 13 Clonagenicity Assay—This table gives the average percentage survival of the indicated cell lines relative to the missense in a clonagenicity assay, over 3 independent experiments. As an internal reference, the known survival gene ‘Survivin’, BCL2, c-Raf and PI3KR1 was also targeted by siRNA. When no Cytotoxic response is detected ‘-’ is recorded.
# [4] = test system: HCT15 cells; experiment: 10-14 day Clonagenicity Assay (MTT), HCT15; type: cell-based, human; conditions: for percentage survival relative to the missense, n = 1: independent experiment n = 1, dilution point of maximum toxicity
# Description: as §1, §2, §3, §4, §5
# [5] = test system: SKOV3 cells; experiment: 10-14 day Clonagenicity Assay (MTT), SKOV3; type: cell-based, human; conditions: independent experiment n = 1, dilution point of maximum toxicity
# Description: as §1, §2, §3, §4, §5
# [6] = test system: U251 cells; experiment: 10-14 day Clonagenicity Assay (MTT), U251; type: cell-based, human; conditions: U251, clonagenicity assay, dilution point of maximum toxicity
# Description: as §1, §2, §3
# Note seed density decreases from 3.5 to 0.1×10^3 cells on the x-axis and the y-axis represents cell number as quantified by MTT conversion, 10-14 days post transfection. This decrease is substantially greater that with the apoptosis gene, Survivin. […] Note seed density decreases from 3.5 to 0.1×10^3 cells on the x-axis and the y-axis represents cell number as quantified by MTT conversion, 10-14 days post transfection.
# as §4, §5
# [7] = test system: A549 cells; experiment: 10-14 day Clonagenicity Assay (MTT), A549; type: cell-based, human; conditions: independent experiment n = 3, dilution point of maximum toxicity
# Description: as §1, §2, §3, §4, §5
# [8] = test system: DU145 cells; experiment: 10-14 day Clonagenicity Assay (MTT), DU145; type: cell-based, human; conditions: independent experiment n = 2, dilution point of maximum toxicity
# Description: as §1, §2, §3, §4, §5
# [9] = test system: A498 cells; experiment: 10-14 day Clonagenicity Assay (MTT), A498; type: cell-based, human; conditions: independent experiment n = 3, dilution point of maximum toxicity
# Description: as §1, §2, §3, §4, §5
# [10] = test system: A549 cells; experiment: Anchorage Independence/Soft Agar Assay, A549; type: cell-based, human; parameters: PERCENTAGE SURVIVAL RELATIVE TO MS, A549, n = 2: tested at 2 µg; conditions: soft agar
# Method: (§6) The Anchorage Independence/Soft Agar Assay allows assessment of the influence of modulation of gene expression on clonal tumouroid formation by observing and quantifying tumouroid morphology and colony number over an extended period of logarithmic growth thereby ascertaining any cell death is induced.
# (§7) Cells are seeded into a 6-well plate and allowed to adhere overnight at 37° C. in a humidified atmosphere containing 5% CO2 in air. Cells are next transfected with siRNA Oligomers, at a concentration of 2 μg, against the genes of interest. Transfections continued for 4 hrs after which the transfection solution is removed and cells are refed with fresh medium and allowed incubate overnight. Transfected cells are next harvested for seeding into soft agar assay as described below. Cells are seeded at 5×10^4 cells per well of a 6 well plate and incubated over a 12/14-Day period whilst proliferating in a 0.05% Agar/Medium cell suspension at 37° C. in a humidified atmosphere containing 5% CO2 in air. Colonies formed are subsequently stained with Crystal Violet, their morphology is assessed and colonies formed are enumerated at a 4× magnification.
# (§8) The cytotoxic effect of each gene is determined by a reduction in colony number compared to our MS control, but any influence on the morphology of the colony is also noted.
# (§9) Examples of genes with a cytotoxic effect on knockdown as detected by the soft agar assay are outlined in Table 14. Table 14 gives the percentage survival of the indicated cell lines post transfection with siRNA oligomers to target genes relative to that of the missense in an anchorage independent assay. As an internal reference, the known survival gene Survivin was also targeted by siRNA. This table illustrates the magnitude of cytotoxicity induced by the knockdown of each target gene compared to the MS control i.e. the number of colonies formed are stained with Crystal violet and enumerated visually as discussed.
# [11] = test system: HCT15 cells; experiment: Anchorage Independence/Soft Agar Assay, HCT15; type: cell-based, human; parameters: PERCENTAGE SURVIVAL RELATIVE TO MS, HCT15, n = 2: tested at 2 µg; PERCENTAGE SURVIVAL RELATIVE TO MS, HCT15, n = 1: tested at 2 µg siRNA; conditions: soft agar
# Method: as §6, §7, §8, §9
# [12] = test system: MCF7 cells; experiment: Anchorage Independence/Soft Agar Assay, MCF7; type: cell-based, human; parameters: PERCENTAGE SURVIVAL RELATIVE TO MS, MCF7, n = 2: tested at 2 µg; conditions: soft agar
# Method: as §6, §7, §8, §9
# [13] = test system: cancer cell lines; experiment: Anchorage Independence/Soft Agar Assay, summary over the cell lines; type: cell-based, human; conditions: 14-day anchorage independent assay, over the cell lines examined
# Method: as §6, §7, §8
# As an internal reference, the known survival gene ‘Survivin’ was also targeted by siRNA.
# [14] = independent experiment n = 2, dilution point of maximum toxicity
compound,measurement,setting,value
CCCCCCCCCCCCCCCCCCOC(=O)OC1C(O)C(O)C(CO)C(O)C1OC (stereo not shown) [1L-6-Hydroxymethyl-chiro-inositol 2-O-methyl-3-O-octadecylcarbonate],apoptosis / GM-CSF mediated survival by sub G1 analysis,[1],survival is abrogated
same,apoptosis / GM-CSF mediated survival by sub G1 analysis,[1]; listed as IL-6-Hydroxymethyl-chiro-inositol 2-(R)-2-O-methyl-3-O-octadecylcarbonate,increases the amount of apoptosis
"siRNA ITPKC: siRNA duplex, sense GUCCUGGGCUGAUAACCUCtt, antisense GAGGUUAUCAGCCCAGGACtt; same in Tables 9 and 11 (sense GUCCUGGGCUGAUAACCUCTT; antisense GAGGUUAUCAGCCCAGGACTT; chemistry not given here)",Decrease in expression of target gene,[2],83.9%
same,"percentage survival relative to the missense, n = 1",[3],45.1%
same,"percentage survival relative to the missense, n = 2",[3]; [14],51.3%
"siRNA UKH: siRNA duplex, sense AGCGCAAGACACUCUGUGGtt, antisense CCACAGAGUGUCUUGCGCUtt; same in Tables 9 and 11 (sense AGCGCAAGACACUCUGUGGTT; antisense CCACAGAGUGUCUUGCGCUTT; chemistry not given here)",Decrease in expression of target gene,[2],75.3%
same,"percentage survival relative to the missense, n = 1",[4],78.1%
same,"percentage survival relative to the missense, n = 2",[4]; [14],71.7%
same,"percentage survival relative to the missense, n = 1",[5],80.3%
same,"percentage survival relative to the missense, n = 1",[6]; independent experiment n = 1,47.7%
same,"percentage survival relative to the missense, n = 3",[6]; independent experiment n = 3,48.1%
same,"percentage survival relative to the missense, n = 1",[3],60.6%
same,"percentage survival relative to the missense, n = 3","[3]; independent experiment n = 3, dilution point of maximum toxicity",54.4%
"siRNA c-Raf: control siRNA, sense UAGUUCAGCAGUUUGGCUAtt, antisense UAGCCAAACUGCUGAACUAtt (sense UAGUUCAGCAGUUUGGCUATT; antisense UAGCCAAACUGCUGAACUATT; chemistry not given here) [reference compound]","percentage survival relative to the missense, n = 1",[4],83.5%
same,"percentage survival relative to the missense, n = 3",[7],59.1%
same,"percentage survival relative to the missense, n = 1",[5],42.5%
same,"percentage survival relative to the missense, n = 2",[8],54.9%
same,"percentage survival relative to the missense, n = 3",[9],14.8%
same,"PERCENTAGE SURVIVAL RELATIVE TO MS, A549, n = 1",[10]; experiment n = 1,57%
same,"PERCENTAGE SURVIVAL RELATIVE TO MS, A549, n = 2",[10]; experiment n = 2,24.2%
same,"PERCENTAGE SURVIVAL RELATIVE TO MS, HCT15, n = 1",[11]; experiment n = 1,70%
same,"PERCENTAGE SURVIVAL RELATIVE TO MS, HCT15, n = 2",[11]; experiment n = 2,65.1%
same,"PERCENTAGE SURVIVAL RELATIVE TO MS, MCF7, n = 1",[12]; experiment n = 1,89.7%
same,"PERCENTAGE SURVIVAL RELATIVE TO MS, MCF7, n = 2",[12]; experiment n = 2,98.2%
same,cell death / apoptosis in the soft agar assay,[13],only induced cell death in the A549 and HCT15 cell lines
